Measured values from US6037351A, “Method of inhibiting hepatitis B virus” (priority 1996, dated 2000).

Experiments:
[1] = Viability of 2.2.15 cells (propidium iodide FACS, 35S methionine incorporation); format: cell-based; conditions: human, 1000 μg/ml, six days, read-out: cells as viable as untreated controls
Experimental: Cell viability was measured by flow cytometry using a FACscan cytometer, Becton Dickinson, Sunnyvale, Calif., USA, after incubation with propidium iodide, as in Platt and Jacob, Eur. J. Biochem. 208, 187-193 (1992).
The decrease was not due to toxicity of NBDNJ, since 90% of the cells maintained in 1000 μgs/ml NBDNJ for six days were as viable as untreated controls, as determined by FACs analysis of propidium iodide stained cells and ^[35] -S methionine incorporation into proteins.

[2] = test system: hepatitis B virus (HBV); test: Secretion of HBV particles from HepG 2.2.15 and HBV infected HepG2 cells; format: cell-based, HBV in human hepatoma cells
[3] = test system: Human Immunodeficiency Virus (HIV); conditions: cited from earlier work
[4] = test system: α-glucosidase I; conditions: N-linked oligosaccharide processing enzyme; cited from earlier work
[5] = test system: LHBs (PreS1); test: Western blot of LHBs in sucrose gradient virion fraction; format: cell-based, HBV; conditions: Western blot densitometry, FIG. 5C vs 5B lane 2
Experimental: Polyethylene glycol (PEG) precipitates of culture medium (FIG. 5A) or partly purified virions, HBs filaments and spheres from untreated (FIG. 5B) and NBDNJ treated (FIG. 5C) cultures were resolved by SDS-PAGE (13.5% acrylamide), transferred to immobilin paper and incubated with PreS1 and PreS2 specific monoclonal antibody.
Samples were dissolved in loading buffer, resolved by electrophoresis through 13.5% SDS polyacrylamide gels (SDS-PAGE) and transferred to PVDF (Millipore) membranes and blocked with 5% powdered milk, as in Gultekin and Heerman, Analytical Biochem. 172, 320-329 (1989). After incubation with primary antibody overnight at room temperature in 1% bovine serum albumin (BSA) in TNE and second antibody (peroxidase conjugated goat anti-mouse IgG serum) for 1 hour in TNE at room temperature, membranes were developed in peroxide-diaminobenzidine (Sigma) PBS, as described in the manufacturer's instructions.
The ELISA results were confirmed by Western blot analysis of fractions from the sucrose gradient containing either intact virus, filaments or spheres (FIGS. 5B, from untreated cultures, and 5C, from NBDNJ treated cultures). […]
Fractions distal to the virion containing fractions (near the bottom of the gradient) were resolved in lane 1 to show specificity of the antibody. […] The images shown in FIGS. 5B and 5C) were quantified by densitometry.

[6] = test system: SHBs (S) antigen; test: ELISA of SHBs (S) antigen in unfractionated culture medium of 2.2.15 cells; format: cell-based, HBV
Experimental: FIG. 3D: Histogram of the area under the averaged peaks of the densitometric tracing of the gel in FIG. 3B. […] Equal volumes of the indicated samples were tested for HBV envelope antigens using the enzyme-linked imminosorbent assay (ELISA) method. Samples of unfractionated medium (FIGS. 4A, 4B and 4C) or partially purified virus (FIGS. 4D, 4E and 4F) from 3-day cultures were tested for HBV SHBs ("S) (FIGS. 4A and 4D), LHBs: "PreS1" (FIGS. 4B and 4E) or MHBs "PreS2" (FIGS. 4C and 4F) epitopes. Cultures were maintained in the indicated concentrations of NBDNJ, expressed in millimolar units and shown along the X axis.
Detection of HBV proteins by the Enzyme Linked Immunoabsorbant assay (ELISA).
Monoclonal antibodies used herein are well-known and are described by Heerman et al., J. Virol. […]
Bound antigen was detected by incubation with peroxidase conjugated goat anti-HBs antibody (Behring) followed by development in orthophenylenediamine (0.33 mg/ml PBS-peroxide solution). Optical densities were read in a Behring plate reader. Tests on purified virus and total medium were conducted over a series of sample dilutions to insure proper quantification.
To distinguish between these possibilities, the amount and nature of envelope antigens in the culture medium was determined by both ELISA and Western analysis. […]

[7] = stably transfected HepG 2.2.15 cells and HBV infected HepG2 cells

SMILES: CCCCN1C[C@H](O)[C@@H](O)[C@H](O)[C@H]1CO [NBDNJ, N-butyl-1,5-dideoxy-1,5-imino-D-glucitol]
- viability at 144 h [1]: 90%
- sensitivity of HBV virions and particles containing LHBs and MHBs vs SHBs enriched particles ([2]; relative to small SHBs enriched particles): more sensitive
- intracellular retention of HBV DNA (in words) [2, 7]: cause intracellular retention of HBV DNA
- secretion of HBV particles (in words) [2, 7]: suppress the secretion of HBV particles
- formation of cytotoxic HIV in vitro (in words) [3]: suppress formation of cytotoxic Human Immunodeficiency Virus (HIV) in vitro
- inhibition of α-glucosidase I (in words) [4]: potent inhibitor
- decrease of LHBs in virion samples compared to untreated [5]: approximately 4 fold
- effect upon total amount of SHBs (S) antigen in medium [6]: no significant effect
